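Each compound was tested at five concentrations against cells in 96-well plates for 48 hours. The concentration for 50% growth inhibition is given as GI50. TGI: concentration producing complete growth inhibition.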
Columns and labels:
Assay in all cases: NCI-60 cell line screen, 48 h
DLD-1 colon = test system: DLD-1 colon
KM20L2 colon = test system: KM20L2 colon
NCI-H460 lung = test system: NCI-H460 lung
SK-MEL-5 melanoma = test system: SK-MEL-5 melanoma
TK-10 renal = test system: TK-10 renal
UO-31 renal = test system: UO-31 renal
NCI-H226 lung = test system: NCI-H226 lung
NCI-H522 lung = test system: NCI-H522 lung
RXF 393 renal = test system: RXF 393 renal
MDA-MB-435 = test system: MDA-MB-435

Compound	TGI (DLD-1 colon) [µM]	TGI (KM20L2 colon) [µM]	TGI (NCI-H460 lung) [µM]	TGI (SK-MEL-5 melanoma) [µM]	TGI (TK-10 renal) [µM]	TGI (UO-31 renal) [µM]	TGI (NCI-H226 lung) [µM]	TGI (NCI-H522 lung) [µM]	TGI (RXF 393 renal) [µM]	GI50 (DLD-1 colon) [µM]	GI50 (KM20L2 colon) [µM]	GI50 (NCI-H226 lung) [µM]	GI50 (NCI-H460 lung) [µM]	GI50 (NCI-H522 lung) [µM]	GI50 (RXF 393 renal) [µM]	GI50 (TK-10 renal) [µM]	GI50 (UO-31 renal) [µM]	TGI (MDA-MB-435) [µM]
O/N=C1/CCCC/C1=C\c1ccc(Cl)c(Cl)c1	> 100	43.4	57.1	35.6	> 100	46.2												
NC1=NN(c2ccccc2)C(=O)C1C(=O)C(=O)Nc1ccccc1 (stereo unspecified)	> 100	> 100	> 100	> 100	> 100	> 100	> 100	> 100										
COc1ccc(/C=C/c2onc3c(=O)n(C)nc(-c4ccccc4)c23)cc1	> 100	> 100	> 100	> 100	> 100	> 100		> 100	> 100									
C[C@@H]1CC[C@@]2(C)OC(c3ccccc3)[C@H](CO)N2C1=O (stereo partly specified)	> 100	> 100	> 100	> 100	> 100				> 100									
O=CN/C=C/c1ccccc1	> 100	> 100	> 100	> 100	> 100	> 100	> 100	> 100	> 100									
C=C(C)CC(C(=O)O)c1ccc(C)cc1 (stereo unspecified)	> 100	> 100	> 100	> 100	> 100				> 100									
O=CCCn1[nH]c(=O)ccc1=O	> 100	> 100	> 100	> 100	> 100	> 100	> 100		> 100									
c1cc[c]([Ge]([O]c2cccc3cccnc23)([c]2ccccc2)[c]2ccccc2)cc1	11.3	5.97	12.2		20.3	23.7	23	3.74	5.49	3.22	2.59	6.33	3.37	1.9	1.88	7.36	11.5	
N#CC(Sc1ccccc1)C(N)=O (stereo unspecified)	> 100	> 100		> 100	> 100	> 100	> 100	> 100	> 100									
CC(=O)N1c2ccccc2N(C(C)=O)C1c1ccc(C2N(C(C)=O)c3ccccc3N2C(C)=O)[nH]1		> 100	> 100	> 100	> 100	> 100	> 100	> 100	> 100									
C[C@]12Cc3conc3C(O)=C1CC[C@@H]1C2CC[C@@]2(C)C1CC[C@@H]2O (stereo partly specified)		> 100	40.7	29.9	> 100	53.3	56.8	13.5	44.9									
C=CC12CCCCC1CC(C(=O)OC)=C(O)C2 (stereo unspecified)	> 100	> 100	> 100	> 100	> 100	> 100	> 100	> 100	> 100									
C=CCCn1nc(-c2ccccc2)oc1=O	> 100	> 100	> 100	> 100	> 100	> 100	> 100	> 100	> 100									
COc1ccc(C2(Cl)C(Cl)(C(F)(F)F)C2(Cl)C(F)(F)F)cc1 (stereo unspecified)	29.4	28.9	30.2	22.1	32	29.5	28.9		24.6									
CC1(C)C(=O)/C=C\C(=O)C(C)(C)C2=CC=C(O2)C(C)(C)C(=O)C(Br)C(Br)C(=O)C(C)(C)C2=CC=C1O2 (stereo unspecified)	87.2	> 100	> 100	> 100	> 100	> 100	> 100	59.6	> 83.8									> 100
Cc1nc2ccccc2c(=O)n1/N=C(\N=Nc1ccccc1)c1ccccc1Cl	> 100	> 100	> 100	> 100	> 86.4	> 100	> 100	> 74.4	61.8									

— PubChem BioAssay (NCI)
